From paper PMC4658133, “Intrinsic Levanase Activity of Bacillus subtilis 168 Levansucrase (SacB)” (PLoS ONE, 2015)

Molecular target: T1, levansucrase (SacB) (Bacillus subtilis, UniProt P05655)
T1 construct: expressed in Escherichia coli BL21, ion exchange purified
T1 sequence (P05655 30-473): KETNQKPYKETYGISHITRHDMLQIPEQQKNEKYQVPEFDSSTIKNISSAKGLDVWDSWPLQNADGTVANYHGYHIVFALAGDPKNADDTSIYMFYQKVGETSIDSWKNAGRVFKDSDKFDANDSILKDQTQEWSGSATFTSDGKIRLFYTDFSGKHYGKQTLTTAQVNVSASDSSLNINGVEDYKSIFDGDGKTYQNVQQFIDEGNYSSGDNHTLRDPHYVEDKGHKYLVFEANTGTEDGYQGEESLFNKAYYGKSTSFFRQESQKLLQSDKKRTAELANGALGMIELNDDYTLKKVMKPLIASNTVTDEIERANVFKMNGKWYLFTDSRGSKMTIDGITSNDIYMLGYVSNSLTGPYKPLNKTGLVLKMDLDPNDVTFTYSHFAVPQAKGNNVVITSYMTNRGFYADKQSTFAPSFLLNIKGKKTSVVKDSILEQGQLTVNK
Assay: HPAEC-PAD product profile after […] h
Assay type: biochemical
Settings: fructosyl acceptor, 127 mM; donor 2.5 mM LMw levan; 50 mM sodium acetate, 1 mM CaCl2, pH 6.0

SMILES: OC[C@H]1OC(O)[C@H](O)[C@@H](O)[C@@H]1O (stereo partly shown) [glucose]
- HPAEC-PAD product profile after 5 h: These profile results from the fructosyl transfer from levan to glucose
